According to patent US6413539B1, “Hydrogel-forming, self-solvating absorbable polyester copolymers, and methods for use thereof” (Poly-Med, Inc., priority 1996, dated 2002):

Experiment: Binding of acidic organic drugs to anion-exchanger
Type: physicochemical
Details: sodium salt of drug; anion-exchanger of Example XIII
Method: The preparation of the anion-exchanger is achieved in two steps. […] In the second step, the practically non-ionic microparticles are incubated in hot dilute solution (^˜80° C.) of hexanediamine of known concentration in dioxane under argon for 2-4 hours. The concentration of the diamine in dioxane is determined by acidimetry. When the reaction practically ceases to take place, the aminated microparticles are separated by filtration, rinsed with dioxane, and dried under reduced pressure. The binding capacity of the anion-exchanger (aminated particles) is determined by (1) elemental analysis for nitrogen and (2) extent of binding to naproxin by measuring the extent of drug removed from a dilute solution using HPLC. The latter is confirmed by release of the immobilized naproxin with a dilute sodium hydroxide solution of known concentration.
Typical examples of acidic organic drugs that are available as sodium salt are ganciclovir, naproxin, and ibuprofen. In typical experiments, the aforementioned drugs are bound to the anion-exchanger of Example XIII following a similar scheme to that used in the same example describing the binding of naproxin.

| Compound | % Drug bound to anion-exchanger |
| --- | --- |
| CC(C)Cc1ccc(C(C)C(=O)O)cc1 (stereo not drawn) [Ibuprofen, ibuprofen] | 8% |
| COc1ccc2cc([C@H](C)C(=O)O)ccc2c1 [Naproxin, naproxin] | 11% |
| Nc1nc(O)c2ncn(COC(CO)CO)c2n1 [Ganciclovir, ganciclovir] | 6% |
